“And” between values parts separate entries of the source, which are not always exact repeats. Equal values may be shown once. Read-outs that look alike come from different tables or passages of the source.
Experiments:
[1] = system: MOLP-8 human multiple myeloma cell line; experiment: MOLP8 Caspase-Glo 3/7 luminescent assay; assay type: cell-based; details: averaged over all runs on all batches
Source text: (§1) MCL-1 is a regulator of apoptosis and is highly over-expressed in tumor cells that escape cell death. The assay evaluates the cellular potency of small-molecule compounds targeting regulators of the apoptosis pathway, primarily MCL-1, Bfl-1, Bcl-2, and other proteins of the Bcl-2 family. Protein-protein inhibitors disrupting the interaction of anti-apoptotic regulators with BH3-domain proteins initiate apoptosis.
The Caspase-Glo® 3/7 Assay is a luminescent assay that measures caspase-3 and -7 activities in purified enzyme preparations or cultures of adherent or suspension cells. The assay provides a proluminescent caspase-3/7 substrate, which contains the tetrapeptide sequence DEVD. This substrate is cleaved to release aminoluciferin, a substrate of luciferase used in the production of light. Addition of the single Caspase-Glo® 3/7 Reagent in an “add-mix-measure” format results in cell lysis, followed by caspase cleavage of the substrate and generation of a “glow-type” luminescent signal.
This assay uses the MOLP-8 human multiple myeloma cell line, which is sensitive to MCL-1 inhibition.
Cell cultures were maintained between 0.2 and 2.0×10^6 cells/mL. The cells were harvested by collection in 50 mL conical tubes. The cells were then pelleted at 500 g for 5 mins before removing supernatant and resuspension in fresh pre-warmed culture medium. The cells were counted and diluted as needed.
The assay reagent was prepared by transferring the buffer solution to the substrate vial and mixing. The solution may be stored for up to 1 week at 4° C. with negligible loss of signal.
Compounds were delivered in assay-ready plates (Proxiplate) and stored at −20° C.
Assays always include 1 reference compound plate containing reference compounds. The plates were spotted with 40 nL of compounds (0.5% DMSO final in cells; serial dilution; 30 μM highest conc. 1/3 dilution, 10 doses, duplicates). The compounds were used at room temperature and 4 μL of pre-warmed media was added to all wells except column 2 and 23. The negative control was prepared by adding 1% DMSO in media. The positive control was prepared by adding the appropriate positive control compound in final concentration of 60 μM in media. The plate was prepared by adding 4 μL negative control to column 23, 4 μL positive control to column 2 and 4 μL cell suspension to all wells in the plate. The plate with cells was then incubated at 37° C. for 2 hours. The assay signal reagent is the Caspase-Glo solution described above, and 8 μL was added to all wells. The plates were then sealed and measured after 30 minutes.
The activity of a test compound was calculated as percent change in apoptosis induction as follows: […]

[2] = system: MOLP8 cell line; experiment: MOLP8 CellEvent Caspase-3/7 Green live-cell IncuCyte apoptosis assay; assay type: cell-based, human; details: averaged values
Procedure: as §1
Activation of the apoptotic pathway was measured using the CellEvent™ Caspase-3/7 Green ReadyProbes™ Reagent (Thermo Fisher C10423, C10723). This assay produces a green fluorescent stain in cells that enter the apoptosis pathway. CellEvent® Caspase-3/7 Green reagent is a four amino acid peptide (DEVD) conjugated to a nucleic acid-binding dye that is non-fluorescent when not bound to DNA. The CellEvent® Caspase-3/7 Green reagent is intrinsically non-fluorescent, as the DEVD peptide inhibits binding of the dye to DNA. Upon activation of caspase-3/7 in apoptotic cells, the DEVD peptide is cleaved and the free dye can bind DNA, generating a bright green fluorescence. The activation of Caspase-3 and Caspase-7 is downstream of inhibition of MCL-1 or other apoptosis inhibiting proteins in cell lines that are dependent on them.
The live-cell readout on the IncuCyte permits tracking over time of the Caspase activation. […] The IncuCyte readout also allows one to normalize for cell number, as the suspension cells are hard to distribute evenly.
Signals were measured every 2 h for a duration of 22 h. The ratio of the Caspase mask to the Confluence mask, per image, as raw data, was calculated and the kinetic trace for every well was exported to Genedata Screener for analysis.
In Genedata Screener values for 6 h, 12 h, and 22 h from the kinetic traces were extracted. The values were normalized against negative controls (untreated cells). A standard dose-response analysis was performed on the normalized data.
The following data was reported at each of the following three aforementioned time points: (a) The dose-response curve, (b) The qAC50 and qAC50 Mode, and (c) Max Activity.
Cells were maintained in culture medium containing 10% Heat Inactivated (HI) FBS, 2 mM L-Glutamine and 50 μg/mL Gentamycin phenol red free RPMI-1640. Cells were split at 0.4 million/mL twice a week.
On Day 1, plates containing individual wells with test compounds at 10 mM concentration, 150 nL per well. The final concentrations range from […] compound (and no compound control) and compounds were thawed at room temperature for 1 hour. 25 μl of prewarmed medium was added into each well by multidrop (column 1, 3-22, 24), followed by addition of DMSO control (0.6% DMSO) in column 2. The plate was sealed using Breathe-Easy® sealing membrane and shaken for 30 min at room temperature to dissolve the test compound(s) in medium. The plate was then kept in the incubator for 1 hour at 37° C., 5% CO2.
MOLP8 cells in medium at […] (20000/50 μl final in assay) were prepared with CellEvent™ Caspase-3/7 Green Detection Reagent at 4 μM (2 μM final in assay). Once prepared, the cells were added to the test compound plate in an amount of 20000 and the plate was immediately placed in the IncuCyte and imaging started using following settings: 10× objective, 2 s exposure time in green channel, interval of 2 h, acquisition stopped after 22 h.
For analysis in IncuCyte, a Basic Analysis protocol was defined to calculate the “confluence” and “caspase” areas from the “Phase” and “green” images, respectively, as follows: (a) Confluence: Segmentation Adjustment 1, Hole Fill 0, Adjust Size −2, No filters (b) Caspase: Top-Hat segmentation, Radius 10, Threshold 0.3 GCU, Edge Split On with sensitivity 0, Hole Fill 0, Adjust Size 1, and filter on a minimum Area of 20 μm^2. The analyzer is trained on a sufficient number of positive and negative control wells, as well as compound treated wells, verifying that the “confluence” layer detects both live and dead (condensed) cells. […]

[3] = target: Myeloid Cell Leukemia 1 (Mcl-1) (Homo sapiens, UniProt Q07820); experiment: biochemical; assay type: binding; details: HTRF Ki (nM)
[4] = MOLP8 cells, 2 hours incubation, read-out: MOLP8 Caspase-Glo AC50
[5] = read-out: MOLP8 Caspase 3/7 AC50 at 6 h, MOLP8 cells, 6 h
[6] = read-out: MOLP8 Caspase 3/7 AC50 at 12 h, MOLP8 cells, 12 h
[7] = read-out: MOLP8 Caspase 3/7 AC50 at 22 h, MOLP8 cells, 22 h
[8] = Homo sapiens, MOLP-8, 2 h, read-out: MOLP8 Caspase-Glo AC50 (nM), MOLP8 cells, 2 hours incubation

Sequence of Myeloid Cell Leukemia 1 (Mcl-1) (Q07820 whole entry): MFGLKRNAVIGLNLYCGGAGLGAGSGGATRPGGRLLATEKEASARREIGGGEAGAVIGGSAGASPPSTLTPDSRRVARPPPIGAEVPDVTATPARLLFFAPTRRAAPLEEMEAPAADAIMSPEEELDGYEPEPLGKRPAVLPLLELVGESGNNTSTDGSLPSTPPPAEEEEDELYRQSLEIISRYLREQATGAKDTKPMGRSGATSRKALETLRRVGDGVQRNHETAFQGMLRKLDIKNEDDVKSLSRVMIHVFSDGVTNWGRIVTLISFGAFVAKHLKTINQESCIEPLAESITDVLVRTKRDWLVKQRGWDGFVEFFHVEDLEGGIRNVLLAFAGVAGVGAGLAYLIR

Row | Structure (SMILES) | AC50 [1, 4] | AC50 [2, 5] | AC50 [2, 6] | AC50 [2, 7] | Ki [3] | AC50 [1, 8] | AC50 ([2]; Homo sapiens, MOLP-8, 6 h, read-out: MOLP8 Caspase 3/7 AC50 at 6 h (μM), MOLP8 cells, 6 h) | AC50 ([2]; Homo sapiens, MOLP-8, 12 h, read-out: MOLP8 Caspase 3/7 AC50 at 12 h (μM), MOLP8 cells, 12 h) | AC50 ([2]; Homo sapiens, MOLP-8, 22 h, read-out: MOLP8 Caspase 3/7 AC50 at 22 h (μM), MOLP8 cells, 22 h)
1 | Cc1nn(CCN(C)C)c2c1-c1c(Cl)ccc3c(c(C(=O)O)n(C)c13)CCCOc1cc(cc3ccccc13)SCc1cc(nn1C)CN(C)C2 (single isomer, unassigned) [Compound 19] | 233 nM | 1.09 µM | 0.99 µM | 0.99 µM | 0.08 nM and 0.18 nM | – | – | – | –
2 | Cc1nn(CC2CCOCC2)c2c1-c1c(Cl)ccc3c(c(C(=O)O)n(C)c13)CCCOc1cc(cc3ccccc13)SCc1cc(nn1C)CN(C)C2 (single isomer, unassigned) [Compound 18] | 3760 nM | 8.32 µM | 8.41 µM | 7.85 µM | 2.46 nM and 3.31 nM | – | – | – | –
3 | COCCOCCn1nc(C)c2c1CN(C)Cc1cc(n(C)n1)CSc1cc(c3ccccc3c1)OCCCc1c(C(=O)O)n(C)c3c-2c(Cl)ccc13 (single isomer, unassigned) [Compound 29] | 23 nM | 0.06 µM | 0.062 µM | 0.06 µM | 0.06 nM and 0.03 nM | – | – | – | –
4 | Cc1nn(CCN2CCOCC2)c2c1-c1c(Cl)ccc3c(c(C(=O)O)n(C)c13)CCCOc1cc(cc3ccccc13)SCc1cc(nn1C)CN(C)C2 (single isomer, unassigned) [Compound 41] | 72 nM | 0.19 µM | 0.2 µM | 0.18 µM | 0.05 nM and 0.03 nM | – | – | – | –
5 | Cc1c2c(nn1CCN(C)C)CN(C)Cc1cc(n(C)n1)CSc1cc(c3ccccc3c1)OCCCc1c(C(=O)O)n(C)c3c-2c(Cl)ccc13 (single isomer, unassigned) [Compound 21] | 1600 nM | 3.16 µM | 2.96 µM | 3.09 µM | 0.49 nM and 0.31 nM | – | – | – | –
6 | Cc1c2c(nn1C)CSCc1cc(n[nH]1)CSc1cc(c3ccccc3c1)OCCCc1c(C(=O)O)n(C)c3c-2c(Cl)ccc13 [Compound 3] | – | – | – | – | 0.08 nM and 0.11 nM | 284 nM | 0.6 µM | 0.55 µM | 0.47 µM
7 | COCCOCCn1nc2c(c1C)-c1c(Cl)ccc3c(c(C(=O)O)n(C)c13)CCCOc1cc(cc3ccccc13)SCc1cc(nn1C)CN(C)C2 (single isomer, unassigned) [Compound 31] | 39 nM | 0.16 µM | 0.16 µM | 0.16 µM | 0.04 nM and 0.03 nM | – | – | – | –
8 | Cc1nn(CCO)c2c1-c1c(Cl)ccc3c(c(C(=O)O)n(C)c13)CCCOc1cc(cc3ccccc13)SCc1cc(nn1C)CN(C)C2 (single isomer, unassigned) [Compound 40] | – | ~26.3 µM | > 30.2 µM | ~15.6 µM | 2.48 nM and 2.61 nM | 10700 nM | – | – | –
